We go through three molecules from patent US11730741B2, “6-chromanol derivatives for use as a medicament” (Sulfateq B.V., priority 2017, dated 2023).

In test [1] the test system is experimental in vivo models of COPD. The following applies: cited from earlier work.
For test [2] the following is noted: screening of a range of SUL compounds including trolox; cited from earlier work.
The test system of test [3] is isolated porcine intrarenal arteries. Briefly: Myography: phenylephrine-induced constriction of isolated porcine intrarenal arteries. The note with it: 30 min pre-incubation. How it is done: Porcine kidneys were obtained from a local slaughterhouse (Kroon Vlees, Gotenburgweg 30, 9723 ™ Groningen, The Netherlands) and transported on ice in normal physiological Krebs buffer containing 120 mM NaCl, 6 mM KCl, 2.5 mM CaCl2×2H2O, 1.2 mM MgCl2×6H2O, 1.2 mM NaH2PO4×H2O, 25 mM NaHCO3 and 11.4 mM D-(+)-Glucose monohydrate (all ingredients were purchased from Merck) in ultrapure water.
The renal artery tree was dissected from the kidney, cleaned of surrounding connective tissue and cut into equally-sized ring segments (2 mm in length). In some rings, endothelium denudation was performed by gentle rubbing of the intimal surface with a paper clip. Rings were mounted in organ baths as described previously (Buikema et al., 2000).
Arterial rings were washed thoroughly by replacing Krebs buffer and allowed to equilibrate for a period of 60 min under 1.4 g of resting tension before they were assessed for viability by inducing 2 subsequent constrictions with KCl (60 mM). […] After washout and stabilization, rings were treated for 30 minutes by incubation with vehicle (0.1% DMSO), SUL-121, SUL-150 or SUL-151, followed by subsequent incubation with cumulative doses of phenylephrine.
Dose-dependent constriction responses to phenylephrine (10^−8M-10^−4M) were recorded in isolated porcine intrarenal arteries. Buffer was warmed to 37° C. and aerated with 95% O2 and 5% CO2 before use.
Vascular constriction responses are expressed as percentage of final response to KCl. Data are expressed as mean±SEM. *p<0.05.
To explore the effects of 2R and 2S-(6-hydroxy-2,5,7,8-tetramethylchroman-2-yl)(piperazin-1-yl)methanone (resp. SUL-150 and SUL-151) on constriction of isolated porcine intrarenal arteries, cumulative dose response curves to the α1 adrenoceptor agonist phenylephrine (PE) were constructed in the presence and absence of SUL-150 resp SUL-151 (FIG. 1).

Test [4] concerns the target T1, human α1 adrenoceptor subtype B (Homo sapiens, UniProt P35368).
T1 construct: expressed in transfected cells; host or cells: CHO-K1
T1 sequence (P35368 1-520): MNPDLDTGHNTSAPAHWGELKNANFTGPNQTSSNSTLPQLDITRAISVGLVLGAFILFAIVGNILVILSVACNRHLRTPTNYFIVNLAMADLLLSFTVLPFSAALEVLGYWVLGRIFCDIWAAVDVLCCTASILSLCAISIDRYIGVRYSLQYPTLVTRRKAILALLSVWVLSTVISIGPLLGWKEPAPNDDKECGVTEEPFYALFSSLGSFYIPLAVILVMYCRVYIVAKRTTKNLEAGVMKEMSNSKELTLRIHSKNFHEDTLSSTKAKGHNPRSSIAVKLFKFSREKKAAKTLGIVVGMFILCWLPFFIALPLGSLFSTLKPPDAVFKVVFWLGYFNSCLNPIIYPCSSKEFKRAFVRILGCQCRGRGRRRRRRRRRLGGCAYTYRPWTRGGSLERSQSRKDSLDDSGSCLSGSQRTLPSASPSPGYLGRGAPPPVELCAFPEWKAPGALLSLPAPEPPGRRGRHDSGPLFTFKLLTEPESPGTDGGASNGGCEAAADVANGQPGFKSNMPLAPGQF
The experiment in a line: Intracellular calcium assay (FLIPR Calcium 6), phenylephrine-stimulated CHO cells overexpressing α1B adrenoceptor. The test is classed as cell-based. The note with it: for logEC50 of phenylephrine-induced calcium influx, α1B: 30 min at 37° C. How it is done: (§1) CHO—K1 cells were stably transfected with a plasmid containing human α1-AR subtypes A, B and D in separate cell lines in DMEM-F12 medium with 10% FBS, 1% penicillin-streptomycin and 200 μg/mL Geneticin (G418, Invitrogen, Carlsbad, Calif.).
(§2) On the next day, CHO cells were treated with either vehicle (0.1% DMSO) or SUL-150 resp. SUL-151 for 30 min at 37° C. and stimulated with a 3-fold dilution series of PE ([…]). [Ca^2+]i was measured using the fluorescent FLIPR Calcium 6 assay kit (Molecular Devices) in immortalized CHO cells stably expressing the α1 adrenoceptor.
(§3) Initially, calcium responses induced by non-cumulative concentration series of phenylephrine were investigated using fluorescent measurements in α1A adrenoceptor-overexpressing CHO cells treated with SUL-150 and SUL-151 (FIG. 4). Fluorescent measurement data was processed and analyzed in SoftMax Pro 7 and expressed as % of baseline AUC with a 3-fold multiplier using an average of first 10 measurement points as baseline.
(§4) The “Vehicle” used in all experiments is 0.1% DMSO solution.
A general note: A change in cytosolic calcium serves as a functional read-out for many receptors and channels.

The target of test [5] is T2, human α1 adrenoceptor subtype A (Homo sapiens, UniProt P35348).
T2 construct: expressed in transfected cells; host or cells: CHO-K1
T2 sequence (P35348 1-466): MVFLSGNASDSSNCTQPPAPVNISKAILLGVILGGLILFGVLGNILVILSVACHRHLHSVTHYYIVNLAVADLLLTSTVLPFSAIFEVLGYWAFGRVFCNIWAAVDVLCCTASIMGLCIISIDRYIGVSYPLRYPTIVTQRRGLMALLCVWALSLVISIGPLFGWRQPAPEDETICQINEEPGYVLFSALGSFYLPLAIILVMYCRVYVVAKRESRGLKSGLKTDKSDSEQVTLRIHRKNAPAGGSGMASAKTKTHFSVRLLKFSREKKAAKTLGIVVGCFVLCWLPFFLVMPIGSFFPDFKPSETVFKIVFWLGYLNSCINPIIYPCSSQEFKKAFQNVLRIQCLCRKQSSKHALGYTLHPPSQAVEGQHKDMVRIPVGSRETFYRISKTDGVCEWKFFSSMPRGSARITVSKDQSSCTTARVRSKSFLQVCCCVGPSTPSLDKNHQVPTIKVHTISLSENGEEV
The experiment in a line: Intracellular calcium assay (FLIPR Calcium 6), phenylephrine-stimulated CHO cells overexpressing α1A adrenoceptor. The note with it: for logEC50 of phenylephrine-induced calcium influx, α1A: 30 min at 37° C. Type of test: cell-based. How it is done:
as §1, §2, §3, §4

Test [6] concerns the target T3, human α1 adrenoceptor subtype D (Homo sapiens, UniProt P25100).
T3 construct: expressed in transfected cells; host or cells: CHO-K1
T3 sequence (P25100 1-572): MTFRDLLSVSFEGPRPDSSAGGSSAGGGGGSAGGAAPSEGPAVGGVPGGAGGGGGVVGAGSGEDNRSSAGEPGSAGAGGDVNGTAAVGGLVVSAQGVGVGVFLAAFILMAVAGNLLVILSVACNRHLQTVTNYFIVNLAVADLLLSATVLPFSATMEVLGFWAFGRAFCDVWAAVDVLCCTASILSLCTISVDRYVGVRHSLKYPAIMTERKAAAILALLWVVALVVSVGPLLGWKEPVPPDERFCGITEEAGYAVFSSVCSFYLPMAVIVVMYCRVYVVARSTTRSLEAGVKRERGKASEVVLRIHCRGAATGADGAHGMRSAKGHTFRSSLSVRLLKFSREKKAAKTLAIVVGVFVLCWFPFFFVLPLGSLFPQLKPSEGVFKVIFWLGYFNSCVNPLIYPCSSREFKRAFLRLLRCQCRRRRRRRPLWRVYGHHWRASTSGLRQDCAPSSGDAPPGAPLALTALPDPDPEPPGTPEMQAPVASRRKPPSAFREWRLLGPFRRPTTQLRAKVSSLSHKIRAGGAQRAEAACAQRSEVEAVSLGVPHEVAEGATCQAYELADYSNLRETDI
The experiment in a line: Intracellular calcium assay (FLIPR Calcium 6), phenylephrine-stimulated CHO cells overexpressing α1D adrenoceptor. Type of test: cell-based. The following applies: for logEC50 of phenylephrine-induced calcium influx, α1D: 30 min at 37° C. How it is done:
as §1, §2, §3, §4

Test [7] concerns the target T4, α1A adrenoceptor (Homo sapiens, UniProt P35348).
T4 construct: expressed in transfected cells; host or cells: CHO
T4 sequence (P35348 1-466): T2 sequence (P35348 1-466)
Briefly: Radioligand displacement binding assay with [7-Methoxy-3H]-prazosin in α1A adrenoceptor transgenic CHO cells. The source says:
We therefore explored whether SUL-150 could directly interact with the α1 adrenoceptor as a receptor antagonist.

[8] abbreviates: in the presence of 10 μM compound.
Where [9] appears, read: in the presence of 30 μM compound.
Setting [10] is: in the presence of 100 μM compound.

Marks after values point to notes of the source that are not given here.

With `Cc1c(C)c2c(c(C)c1O)CCC(C)(C(=O)N1CCNCC1)O2` (racemic) [SUL-121, (6-hydroxy-2,5,7,8-tetramethylchroman-2-yl)(piperazin-1-yl)methanone], in test [1], the LPS-induced airway neutrophilia result is given as “dose-dependently reduced”, the “LPS-induced attenuation of H2S production” value is “dose-dependently reduced”, the “neutrophilia-related as well as unrelated ROS production” value is given as “dose-dependently reduced” and the “nuclear translocation of the antioxidative response regulator Nrf2” value is “inhibited”. Besides, in test [2], the anti-oxidant effect entry is “very potent anti-oxidant effect”.
Turning to `Cc1c(C)c2c(c(C)c1O)CCC(C)(C(=O)N1CCNCC1)O2` (stereo not shown) [SUL-150, (6-hydroxy-2,5,7,8-tetramethylchroman-2-yl)(piperazin-1-yl)methanone], the “logEC50 of phenylephrine-induced constriction responses” value is −5.11 ± 0.09* in test [3] (setting [8]), −5.06 ± 0.06* in test [3] (setting [9]) and −4.44 ± 0.09* in test [3] (setting [10]). Also, the “effect on PE-induced calcium transients, α1B subtype, in words” value in test [4] is “shifted dose response curves rightwards”. Further, the “logEC50 of phenylephrine-induced calcium influx, α1B” value in test [4] (10 μM compound) is −7.51 ± 0.08; in test [4] (30 μM compound) it was −7.24 ± 0.07; in test [4] (100 μM compound), −6.72 ± 0.08. The “effect on PE-induced calcium transients, α1A subtype, in words” value in test [5] was “shifted dose response curves rightwards”. Also, the results for the “logEC50 of phenylephrine-induced calcium influx, α1A” value in test [5] (10 μM compound), in test [5] (30 μM compound) and in test [5] (100 μM compound) were −7.62 ± 0.03, −7.28 ± 0.03 and −6.88 ± 0.03, respectively. Moreover, the “effect on PE-induced calcium transients, α1D subtype, in words” value in test [6] was “shifted dose response curves rightwards”. The entries for the “logEC50 of phenylephrine-induced calcium influx, α1D” value in test [6] (10 μM compound), in test [6] (30 μM compound) and in test [6] (100 μM compound) were −7.37 ± 0.10, −7.04 ± 0.06 and −6.80 ± 0.10, respectively. The “potency in displacing the radioligand, compared to SUL-151, in words” value in test [7] was “significantly more potent”.
Regarding `Cc1c(C)c2c(c(C)c1O)CC[C@@](C)(C(=O)N1CCNCC1)O2` [SUL-151, (2S)(6-hydroxy-2,5,7,8-tetramethylchroman-2-yl)(piperazin-1-yl)methanone], the “logEC50 of phenylephrine-induced constriction responses” value in test [3] (setting [8]) was −5.82 ± 0.05; in test [3] (setting [9]), −5.89 ± 0.04; in test [3] (setting [10]), −5.77 ± 0.04. Also, in test [4], the “effect on PE-induced calcium transients, α1B subtype, in words” value was “did not affect calcium transients”. Besides, in test [5], the “effect on PE-induced calcium transients, α1A subtype, in words” value is given as “did not affect calcium transients”. For the same molecule, the “logEC50 of phenylephrine-induced calcium influx, α1A” value in test [5] (10 μM compound) is given as −8.09 ± 0.10; in test [5] (30 μM compound) it was −8.09 ± 0.11; in test [5] (100 μM compound), −7.98 ± 0.10. Further, the “effect on PE-induced calcium transients, α1D subtype, in words” value in test [6] was “did not affect calcium transients”. Further, the “concentrations at which [7-Methoxy-3H]-prazosin was displaced” value in test [7] is “higher than 10 μM”.
